Legend:
[1] = tested on: melanin synthesis; conditions: cited from earlier work
[2] = tested on: melanocytes in the skin; conditions: cited from earlier work
[3] = tested on: skin; conditions: cited from earlier work
[4] = tested on: facial freckles and the normal facial skin; assay: Clinical test of whitening effect of DAP-containing cream, smart skin analysis system; assay type: in vivo
Procedure: Moreover, for proving the whitening effect of the DAP-containing prescription according to the present invention, a clinical test was performed and used the detection device shown in Table 7. Six subjects joining the test received the cream preparation containing 1% or 2% DAP on facial freckles and the normal facial skin twice a day for consecutive […] (2010 Nov. 24-2010 Dec. 15), and the whitening effect was evaluated. [table] According to the foregoing clinical test, data graphs with respect to the disclosed prodrug composition as shown in FIG. 2 through FIG. 7 have been made, while the photographs showing the tested sites of several subjects are reflected in FIG. 8 through FIG.

| SMILES | anti-melanin effect, times higher than that of HQ ([1]; relative to HQ) | anti-melanin effect, times higher than that of normal arbutin ([1]; relative to normal arbutin) | safety concentration relative to HQ [2] | time to desired clinical effects ([3]; DA solutions with proper concentration) | effect of whitening the skin ([3]; local usage, clinical research for 8 weeks) | side effects (toxic to melanocytes, irritative, allergenic to the skin) ([4]; four-week clinical test, 1% or 2% DAP cream twice a day) | whitening effect on the normal skin ([4]; prescription containing 1% DAP, consecutive four weeks, left cheek) | whitening effect on the solar lentigines ([4]; prescription containing 2% DAP, consecutive four weeks, left cheek) |
| --- | --- | --- | --- | --- | --- | --- | --- | --- |
| Oc1ccc(OC2CCCCO2)cc1 (centres unmarked) [DA, deoxy-arbutin] | 10 times | 350 times | four times higher | three weeks | progressive and apparent effect of whitening the skin |  |  |  |
| c1cc(OC2CCCCO2)ccc1OC1CCCCO1 (centres unmarked) [DAP, 1,4-bis(tetrahydro-2H-pyran-2-yloxy)benzene] |  |  |  |  |  | without side effects | up to 19% | up to 46% |

From patent US20120213720A1, “Prodrug composition for skin with twin protecting groups bound by disubstituted benzene” (priority 2011, published 2012)
